Source: patent US7884117B2, “Carbonylamino pyrrolopyrazoles, potent kinase inhibitors” (Pfizer Inc., priority 2005, dated 2011)

Key:
[1] = target: T1, PAK4 kinase activity in whole cells (TR-293-KDG, modified HEK 293) (Homo sapiens, UniProt O96013); experiment: PAK4 cellular assay: sandwich ELISA of PAK4-dependent phosphorylation of GEF-H1b in TR-293-KDG cells; format: cell-based; details: 3-hour exposure
T1 construct: engineered to overexpress both GEF-H1b and the kinase domain (KD) of PAK4; expressed in transfected cells; host or cells: TR-293-KDG (modified HEK 293, Trex system, Invitrogen)

[2] = target: T2, PAK4 Kinase domain (PAK4 KD) (Homo sapiens, UniProt O96013); experiment: PAK4 kinase domain enzymatic assay (PK/LDH-coupled, Ki); format: biochemical; details: for Ki: PAK4 Kinase Domain
T2 construct: Cloning, expression, and purification of recombinant PAK4 Kinase domain (PAK4 KD); His tag (pET28a(+)/pET24a(+), Ni-NTA purification) (N, cleaved yes); GST (pGST4.5, glutathione column) (N, cleaved yes); made in house; host or cells: E. coli BL21(DE3)
T2 sequence (O96013 321-572 limits assumed): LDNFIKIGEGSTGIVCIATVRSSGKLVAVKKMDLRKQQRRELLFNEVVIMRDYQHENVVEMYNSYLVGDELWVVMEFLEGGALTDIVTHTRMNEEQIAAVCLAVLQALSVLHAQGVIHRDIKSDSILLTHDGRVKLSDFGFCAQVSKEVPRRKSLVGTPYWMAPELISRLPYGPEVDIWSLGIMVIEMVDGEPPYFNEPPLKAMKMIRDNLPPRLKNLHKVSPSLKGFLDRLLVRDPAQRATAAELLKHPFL

T1 sequence (O96013 321-572 limits assumed): as above

| SMILES | EC50 [1] [nM] | Ki [2] [nM] | inhibition at 1 µM [2] [%] |
| --- | --- | --- | --- |
| CN(C)C[C@H](Cc1ccccc1)OC(=O)N1Cc2c(NC(=O)c3ccccc3F)n[nH]c2C1(C)C [Example 31, (1S)-1-benzyl-2-(dimethylamino)ethyl 3-[(2-fluorobenzoyl)amino]-6,6-dimethyl-4,6-dihydropyrrolo[3,4-c]pyrazole-5(1H)-carboxylate] | 230 | 858 |  |
| CC1(C)c2[nH]nc(NC(=O)[C@@H]3C[C@H]3c3ccccc3)c2CN1C(=O)N[C@@H]1C[C@H]1c1ccccc1 (relative stereo) [Example 108, 6,6-dimethyl-N-[trans-2-phenylcyclopropyl]-3-({[trans-2-phenylcyclopropyl]-carbonyl}amino)-4,6-dihydropyrrolo[3,4-c]pyrazole-5(1H)-carboxamide] | 1150 | 70 |  |
| CN(C)C[C@@H](OC(=O)N1Cc2c(NC(=O)c3ccc(F)cc3)n[nH]c2C1(C)C)C1CCCCC1 [Example 75, (1S)-1-cyclohexyl-2-(dimethylamino)ethyl 3-[(4-fluorobenzoyl)amino]-6,6-dimethyl-4,6-dihydropyrrolo[3,4-c]pyrazole-5(1H)-carboxylate] | 115 | 73.1 |  |
| CN(C)C[C@@H](OC(=O)N1Cc2c(NC(=O)c3ccccc3)n[nH]c2C1(C)C)C1CCCCC1 [Example 32, (1S)-1-cyclohexyl-2-(dimethylamino)ethyl 3-(benzoylamino)-6,6-dimethyl-4,6-dihydropyrrolo[3,4-c]pyrazole-5(1H)-carboxylate] | 162 | 57.1 |  |
| CN(C)C[C@@H](OC(=O)N1Cc2c(NC(=O)[C@@H]3C[C@H]3c3ccccc3)n[nH]c2C1(C)C)c1ccccn1 [Example 29, (1R)-2-(dimethylamino)-1-pyridin-2-ylethyl 6,6-dimethyl-3-({[trans-2-phenylcyclopropyl]carbonyl}-amino)-4,6-dihydropyrrolo[3,4-c]pyrazole-5(1H)-carboxylate] | 419 | 27.1 |  |
| CN(C)C[C@@H](OC(=O)N1Cc2c(NC(=O)c3ccc(C(F)(F)F)cc3)n[nH]c2C1(C)C)c1ccccc1 [Example 5] | 271 | 14.4 |  |
| CN(C)C[C@@H](OC(=O)N1Cc2c(NC(=O)C3CCCCC3)n[nH]c2C1(C)C)c1ccccc1 [Example 13, (1S)-2-(dimethylamino)-1-phenylethyl 3-[(cyclohexylcarbonyl)amino]-6,6-dimethyl-4,6-dihydropyrrolo[3,4-c]pyrazole-5(1H)-carboxylate] | 3.9 | 109 |  |
| Cc1cc(C(=O)Nc2n[nH]c3c2CN(C(=O)NC2CC2c2ccccc2)C3(C)C)n(C)n1 (stereo not drawn) [Example 113, 3-(1,3-dimethyl-1H-pyrazole-5-carboxamido)-6,6-dimethyl-N-[trans-(2-phenylcyclopropyl)]pyrrolo[3,4-c]pyrazole-5(1H,4H,6H)-carboxamide] |  |  | 65 |
| CN(C)C[C@@H](OC(=O)N1Cc2c(NC(=O)C3CCOCC3)n[nH]c2C1(C)C)c1ccccc1 [Example 91, (S)-2-(dimethylamino)-1-phenylethyl 6,6-dimethyl-3-(tetrahydro-2H-pyran-4-carboxamido)pyrrolo[3,4-c]pyrazole-5(1H,4H,6H)-carboxylate] |  | 286 |  |
| CC1(C)c2[nH]nc(NC(=O)c3ccccc3)c2CN1C(=O)N[C@@H]1C[C@H]1c1ccccc1 (relative stereo) [Example 58, 3-(benzoylamino)-6,6-dimethyl-N-[trans-2-phenylcyclopropyl]-4,6-dihydropyrrolo[3,4-c]pyrazole-5(1H)-carboxamide] |  | 96 |  |
| CC(C)C[C@@H](CN(C)C)OC(=O)N1Cc2c(NC(=O)c3ccccc3F)n[nH]c2C1(C)C [Example 78, (1S)-1-[(dimethylamino)methyl]-3-methylbutyl 3-[(2-fluorobenzoyl)amino]-6,6-dimethyl-4,6-dihydropyrrolo[3,4-c]pyrazole-5(1H)-carboxylate] |  | 284 |  |
| CC1(C)c2[nH]nc(NC(=O)C3CCC3)c2CN1C(=O)N[C@@H]1CCN(Cc2ccccc2)C1 [Example 65, N-[(3R)-1-benzylpyrrolidin-3-yl]-3-[(cyclobutylcarbonyl)amino]-6,6-dimethyl-4,6-dihydropyrrolo[3,4-c]pyrazole-5(1H)-carboxamide] |  | 849 |  |
| CC(C)[C@@H](CN(C)C)OC(=O)N1Cc2c(NC(=O)c3ccccc3)n[nH]c2C1(C)C [Example 74, (1S)-1-[(dimethylamino)methyl]-2-methylpropyl 3-(benzoylamino)-6,6-dimethyl-4,6-dihydropyrrolo[3,4-c]pyrazole-5(1H)-carboxylate] |  | 475 |  |
| CC1(C)c2[nH]nc(NC(=O)c3ccc(F)cc3)c2CN1C(=O)NC(CN1CCOCC1)c1ccccc1 (stereo not drawn) [Example 102, 3-[(4-fluorobenzoyl)amino]-6,6-dimethyl-N-(2-morpholin-4-yl-1-phenylethyl)-4,6-dihydropyrrolo[3,4-c]pyrazole-5(1H)-carboxamide] |  | 621 |  |

Next, values leading:

| EC50 [1] [nM] | Ki [2] [nM] | inhibition at 1 µM [2] [%] | SMILES |
| --- | --- | --- | --- |
| 59 | 12.5 |  | CN(C)C[C@@H](NC(=O)N1Cc2c(NC(=O)c3cccc(Oc4ccccc4)c3)n[nH]c2C1(C)C)c1ccccc1 [Example 96, N-[(1S)-2-(dimethylamino)-1-phenylethyl]-6,6-dimethyl-3-[(3-phenoxybenzoyl)amino]-4,6-dihydropyrrolo[3,4-c]pyrazole-5(1H)-carboxamide] |
| 84.1 | 101 |  | CN(C)C[C@@H](NC(=O)N1Cc2c(n[nH]c2NC(=O)c2nccs2)C1(C)C)c1ccccc1 [Example 71, N-[(1S)-2-(dimethylamino)-1-phenylethyl]-6,6-dimethyl-3-[(1,3-thiazol-2-ylcarbonyl)amino]-4,6-dihydropyrrolo[3,4-c]pyrazole-5(1H)-carboxamide] |
| 4 | 251 |  | CO[C@@H](C)C(=O)Nc1n[nH]c2c1CN(C(=O)O[C@H](CN(C)C)c1ccccc1)C2(C)C [Example 90, (S)-2-(dimethylamino)-1-phenylethyl 3-((S)-2-methoxypropanamido)-6,6-dimethylpyrrolo[3,4-c]pyrazole-5(1H,4H,6H)-carboxylate] |
| 9 | 89 |  | CN(C)C[C@@H](NC(=O)N1Cc2c(NC(=O)c3nc4ccccc4s3)n[nH]c2C1(C)C)c1ccccc1 [Example 104, (S)-N-(5-((2-(dimethylamino)-1-phenylethyl)carbamoyl)-6,6-dimethyl-1,4,5,6-tetrahydropyrrolo[3,4-c]pyrazol-3-yl)benzo[d]thiazole-2-carboxamide] |
| 50 | 212 |  | COC(C)(C)C(=O)Nc1n[nH]c2c1CN(C(=O)O[C@H](CN(C)C)c1ccccc1)C2(C)C [Example 116, (S)-2-(dimethylamino)-1-phenylethyl 3-(2-methoxy-2-methylpropanamido)-6,6-dimethylpyrrolo[3,4-c]pyrazole-5(1H,4H, 6H)-carboxylate] |
| 244 | 278 |  | CN(C)C[C@@H](OC(=O)N1Cc2c(NC(=O)c3ccccc3F)n[nH]c2C1(C)C)c1ccccn1 [Example 26, (1R)-2-(dimethylamino)-1-pyridin-2-ylethyl 3-[(2-fluorobenzoyl)amino]-6,6-dimethyl-4,6-dihydropyrrolo[3,4-c]pyrazole-5(1H)-carboxylate] |
| 242 | 354 |  | CC(=O)Nc1n[nH]c2c1CN(C(=O)N[C@H](CN(C)C)c1ccccc1)C2(C)C [Example 52, 3-(acetylamino)-N-[(1S)-2-(dimethylamino)-1-phenylethyl]-6,6-dimethyl-4,6-dihydropyrrolo[3,4-c]pyrazole-5(1H)-carboxamide] |
| 14.8 | 17.4 |  | CN(C)CC(OC(=O)N1Cc2c(NC(=O)c3ccc(F)cc3)n[nH]c2C1(C)C)c1ccccc1 (stereo not drawn) [Example 22] |
|  | 267 |  | CC1(C)c2[nH]nc(NC(=O)c3ccccc3)c2CN1C(=O)NC(CN1CCCC1)c1ccccc1 (stereo not drawn) [Example 60, 3-(benzoylamino)-6,6-dimethyl-N-(1-phenyl-2-pyrrolidin-1-ylethyl)-4,6-dihydropyrrolo[3,4-c]pyrazole-5(1H)-carboxamide] |
| 560 |  |  | CN(C)CC(OC(=O)N1Cc2c(n[nH]c2NC(=O)C2CCCO2)C1(C)C)c1cccc(F)c1 (single isomer, unassigned) [Example 83A] |
|  | 19.3 |  | CC1(C)c2[nH]nc(NC(=O)c3ccccc3)c2CN1C(=O)N[C@H](CN)c1ccccc1 [Example 64, N-[(1S)-2-amino-1-phenylethyl]-3-(benzoylamino)-6,6-dimethyl-4,6-dihydropyrrolo[3,4-c]pyrazole-5(1H)-carboxamide] |
|  | 20.8 |  | CC1(C)c2[nH]nc(NC(=O)c3ccc(F)cc3)c2CN1C(=O)N[C@H](CN)c1ccccc1 [Example 115, N-[(1S)-2-amino-1-phenylethyl]-3-[(4-fluorobenzoyl)amino]-6,6-dimethyl-4,6-dihydropyrrolo[3,4-c]pyrazole-5(1H)-carboxamide] |
|  | 178 |  | CC[C@@H](NC(=O)N1Cc2c(NC(=O)c3ccccc3)n[nH]c2C1(C)C)c1ccccc1 [Example 63, 3-(benzoylamino)-6,6-dimethyl-N-[(1R)-1-phenylpropyl]-4,6-dihydropyrrolo[3,4-c]pyrazole-5(1H)-carboxamide] |
| 396 |  |  | CN(C)CC(OC(=O)N1Cc2c(n[nH]c2NC(=O)C2CCCO2)C1(C)C)c1cccc(F)c1 (single isomer, unassigned) [Example 84B] |
|  | 81.7 |  | Cc1ccc(Cl)c(C(=O)Nc2n[nH]c3c2CN(C(=O)N[C@H](CN(C)C)c2ccccc2)C3(C)C)c1F [Example 110, (S)-3-(6-chloro-2-fluoro-3-methylbenzamido)-N-(2-(dimethylamino)-1-phenylethyl)-6,6-dimethylpyrrolo[3,4-c]pyrazole-5(1H,4H,6H)-carboxamide] |
|  | 226 |  | CCC(=O)Nc1n[nH]c2c1CN(C(=O)O[C@H](CN(C)C)c1ccccc1)C2(C)C [Example 118, (S)-2-(dimethylamino)-1-phenylethyl 6,6-dimethyl-3-propionamidopyrrolo[3,4-c]pyrazole-5(1H,4H,6H)-carboxylate] |
